Measured values from patent US6355799B1, “Substituted benzene compounds, process for their preparation, and herbicidal and defoliant compositions containing them” (ISK Americas Incorporated, priority 1997, dated 2002).

Key:
Format in all cases: in vivo
[1] = tested on: field corn (Zea mays L., var. Dekalb 535, CORN); experiment: Pre-emerge test, crop safety; conditions: rated 14 days after application, 0 = no damage, 100 = complete death
How it was run: (§1)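 Visual ratings on a 0-100 scale (0 no damage, 100 all plants dead) were taken at 14 days after treatment. Rates of 15-1000 g ai/ha in acetone, 187 l/ha, were sprayed onto soil one day after planting (pre-emerge) or onto 2-3 leaf plants with 0.25% v/v surfactant (post-emerge).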

[2] = tested on: upland rice (Oryza sp., var. Tebonnet, RICE); experiment: Pre-emerge test, crop safety; conditions: rated 14 days after application, 0 = no damage, 100 = complete death
How it was run: as §1

[3] = tested on: field corn (Zea mays L., var. Dekalb 535, CORN); experiment: Post-emerge test, crop safety; conditions: post-emerge, 14 days after application, rating scale 0-100
How it was run: (§2)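 Compounds in acetone were track-sprayed at 187 l/ha, 15–1000 g ai/ha, onto sandy loam pots. Pre-emerge seeds were sown one day before spraying, with surface watering afterwards. Post-emerge plants were at the 2–3 leaf stage and sprayed with 0.25% v/v non-ionic surfactant. Injury was rated 0–100 at 14 days.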

[4] = tested on: upland rice (Oryza sp., var. Tebonnet, RICE); experiment: Post-emerge test, crop safety; conditions: post-emerge, 14 days after application, rating scale 0-100
How it was run: as §2

[5] = tested on: redroot pigweed (Amaranthus retroflexus, AMARE); experiment: Pre-emerge test, greenhouse herbicide activity screening; conditions: rated 14 days after application, 0 = no damage, 100 = complete death
How it was run: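 Rating: 0–100 visual injury, 14 DAA. Application: acetone, 187 l/ha, 15–1000 g ai/ha, flat-fan track sprayer with nozzle 40–45 cm above soil or canopy. Post-emerge runs used 0.25% v/v surfactant on 2–3 leaf plants.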

[6] = tested on: common ragweed (Ambrosia artemisizfolia L., AMBEL); experiment: Post-emerge test, greenhouse herbicide activity screening; conditions: post-emerge, 14 days after application, rating scale 0-100
How it was run: (§3)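 Sandy loam pots; pre-emerge: sown 1 d pre-spray, surface-watered after, then bottom-watered. Post-emerge: sown 8–21 d before, 2–3 leaf stage, + 0.25% v/v NIS, bottom-watered. Acetone, 187 l/ha track spray, 15–1000 g ai/ha. 0–100 injury score, day 14.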

[7] = tested on: large crabgrass (Digitaria sanguinalis, DIGSA); experiment: as above; conditions: post-emerge, 14 days after application, rating scale 0-100
How it was run: as §3

[8] = tested on: ivyleaf morningglory (Ipomoea hederacea, IPOHE); experiment: as above; conditions: post-emerge, 14 days after application, rating scale 0-100
How it was run: as §3

[9] = tested on: johnsongrass (Sorghum halepense, SORHA); experiment: as above; conditions: post-emerge, 14 days after application, rating scale 0-100
How it was run: as §3

[10] = tested on: lambsquarters (Chenopodium album, CHEAL); experiment: as above; conditions: post-emerge, 14 days after application, rating scale 0-100
How it was run: as §3

[11] = tested on: green foxtail (Setaria viridis, SETVI); experiment: as above; conditions: post-emerge, 14 days after application, rating scale 0-100
How it was run: as §3

[12] = tested on: velvetleaf (Abutilon theophrasti, ABUTH); experiment: as above; conditions: post-emerge, 14 days after application, rating scale 0-100
How it was run: as §3

[13] = tested on: redroot pigweed (Amaranthus retroflexus, AMARE); experiment: as above; conditions: post-emerge, 14 days after application, rating scale 0-100
How it was run: as §3

[14] = tested on: sicklepod (Cassia obtusifolia, CASOB); experiment: as above; conditions: post-emerge, 14 days after application, rating scale 0-100
How it was run: as §3

[15] = tested on: barnyardgrass (Echinochloa crus-galli, ECHCG); experiment: as above; conditions: post-emerge, 14 days after application, rating scale 0-100
How it was run: as §3

[16] = tested on: common ragweed (Ambrosia artemisizfolia L., AMBEL); experiment: Pre-emerge test, greenhouse herbicide activity screening; conditions: rated 14 days after application, 0 = no damage, 100 = complete death
How it was run: as §2

[17] = tested on: large crabgrass (Digitaria sanguinalis, DIGSA); experiment: as above; conditions: rated 14 days after application, 0 = no damage, 100 = complete death
How it was run: as §2

[18] = tested on: ivyleaf morningglory (Ipomoea hederacea, IPOHE); experiment: as above; conditions: rated 14 days after application, 0 = no damage, 100 = complete death
How it was run: as §2

[19] = tested on: johnsongrass (Sorghum halepense, SORHA); experiment: as above; conditions: rated 14 days after application, 0 = no damage, 100 = complete death
How it was run: as §2

[20] = tested on: lambsquarters (Chenopodium album, CHEAL); experiment: as above; conditions: rated 14 days after application, 0 = no damage, 100 = complete death
How it was run: as §2

[21] = tested on: green foxtail (Setaria viridis, SETVI); experiment: as above; conditions: rated 14 days after application, 0 = no damage, 100 = complete death
How it was run: as §2

[22] = tested on: velvetleaf (Abutilon theophrasti, ABUTH); experiment: as above; conditions: rated 14 days after application, 0 = no damage, 100 = complete death
How it was run: as §2

[23] = tested on: sicklepod (Cassia obtusifolia, CASOB); experiment: as above; conditions: rated 14 days after application, 0 = no damage, 100 = complete death
How it was run: as §2

[24] = tested on: barnyardgrass (Echinochloa crus-galli, ECHCG); experiment: as above; conditions: rated 14 days after application, 0 = no damage, 100 = complete death
How it was run: as §2

Structure (SMILES): COc1c(Cl)cc(F)c(-n2c(=O)cc(C(F)(F)F)n(C)c2=O)c1NC(=O)c1ccc(Cl)cc1Cl [2-58]
- Pre-emerge phytotoxicity rating (0-100), crop damage, CORN ([1]; 63 g ai/ha): 40
- Pre-emerge phytotoxicity rating (0-100), crop damage, CORN ([1]; 250 g ai/ha): 95
- Pre-emerge phytotoxicity rating (0-100), crop damage, RICE ([2]; 63 g ai/ha): 80
- Pre-emerge phytotoxicity rating (0-100), crop damage, RICE ([2]; 250 g ai/ha): 95
- phytotoxicity rating CORN ([3]; 63 g ai/ha): 40
- phytotoxicity rating CORN ([3]; 250 g ai/ha): 90
- phytotoxicity rating RICE ([4]; 63 g ai/ha): 50
- phytotoxicity rating RICE ([4]; 250 g ai/ha): 85
- Pre-emerge Herbicidal Activity, phytotoxicity rating (0-100), AMARE ([5]; 63 g ai/ha): 100
- Pre-emerge Herbicidal Activity, phytotoxicity rating (0-100), AMARE ([5]; 250 g ai/ha): 100
- phytotoxicity rating AMBEL ([6]; 63 g ai/ha): 100
- phytotoxicity rating AMBEL ([6]; 250 g ai/ha): 100
- phytotoxicity rating DIGSA ([7]; 63 g ai/ha): 10
- phytotoxicity rating DIGSA ([7]; 250 g ai/ha): 40
- phytotoxicity rating IPOHE ([8]; 63 g ai/ha): 95
- phytotoxicity rating IPOHE ([8]; 250 g ai/ha): 100
- phytotoxicity rating SORHA ([9]; 63 g ai/ha): 20
- phytotoxicity rating SORHA ([9]; 250 g ai/ha): 90
- phytotoxicity rating CHEAL ([10]; 63 g ai/ha): 100
- phytotoxicity rating CHEAL ([10]; 250 g ai/ha): 100
- phytotoxicity rating SETVI ([11]; 63 g ai/ha): 50
- phytotoxicity rating SETVI ([11]; 250 g ai/ha): 60
- phytotoxicity rating ABUTH ([12]; 63 g ai/ha): 100
- phytotoxicity rating ABUTH ([12]; 250 g ai/ha): 100
- phytotoxicity rating AMARE ([13]; 63 g ai/ha): 100
- phytotoxicity rating AMARE ([13]; 250 g ai/ha): 100
- phytotoxicity rating CASOB ([14]; 63 g ai/ha): 100
- phytotoxicity rating CASOB ([14]; 250 g ai/ha): 100
- phytotoxicity rating ECHCG ([15]; 63 g ai/ha): 20
- phytotoxicity rating ECHCG ([15]; 250 g ai/ha): 90
- Pre-emerge Herbicidal Activity, phytotoxicity rating (0-100), AMBEL ([16]; 63 g ai/ha): 50
- Pre-emerge Herbicidal Activity, phytotoxicity rating (0-100), AMBEL ([16]; 250 g ai/ha): 100
- Pre-emerge Herbicidal Activity, phytotoxicity rating (0-100), DIGSA ([17]; 63 g ai/ha): 90
- Pre-emerge Herbicidal Activity, phytotoxicity rating (0-100), DIGSA ([17]; 250 g ai/ha): 100
- Pre-emerge Herbicidal Activity, phytotoxicity rating (0-100), IPOHE ([18]; 63 g ai/ha): 20
- Pre-emerge Herbicidal Activity, phytotoxicity rating (0-100), IPOHE ([18]; 250 g ai/ha): 100
- Pre-emerge Herbicidal Activity, phytotoxicity rating (0-100), SORHA ([19]; 63 g ai/ha): 70
- Pre-emerge Herbicidal Activity, phytotoxicity rating (0-100), SORHA ([19]; 250 g ai/ha): 100
- Pre-emerge Herbicidal Activity, phytotoxicity rating (0-100), CHEAL ([20]; 63 g ai/ha): 100
- Pre-emerge Herbicidal Activity, phytotoxicity rating (0-100), CHEAL ([20]; 250 g ai/ha): 100
- Pre-emerge Herbicidal Activity, phytotoxicity rating (0-100), SETVI ([21]; 63 g ai/ha): 100
- Pre-emerge Herbicidal Activity, phytotoxicity rating (0-100), SETVI ([21]; 250 g ai/ha): 100
- Pre-emerge Herbicidal Activity, phytotoxicity rating (0-100), ABUTH ([22]; 63 g ai/ha): 100
- Pre-emerge Herbicidal Activity, phytotoxicity rating (0-100), ABUTH ([22]; 250 g ai/ha): 100
- Pre-emerge Herbicidal Activity, phytotoxicity rating (0-100), CASOB ([23]; 63 g ai/ha): 30
- Pre-emerge Herbicidal Activity, phytotoxicity rating (0-100), CASOB ([23]; 250 g ai/ha): 99
- Pre-emerge Herbicidal Activity, phytotoxicity rating (0-100), ECHCG ([24]; 63 g ai/ha): 50
- Pre-emerge Herbicidal Activity, phytotoxicity rating (0-100), ECHCG ([24]; 250 g ai/ha): 100
